Measured values as given in a melting point compilation (Tetko et al.; mined from patent text by program, amines drawn as free bases though some values may be those of a salt).

Structure (SMILES) | melting point
C[Si](C)(C)C#Cc1ccc(Br)cc1 | 62 °C
O=C(O)Cn1c(-c2ccc([N+](=O)[O-])cc2)nc2cccnc21 | 249 to 251 °C
CCOC(=O)C(Cl)=Cc1cc([N+](=O)[O-])ccc1Cl | 91 °C
Oc1cccc(NCCc2ccccn2)c1 | 118 to 120 °C
C#Cc1nc(-c2ccco2)c2ncn(Cc3ccc(OC)cc3)c2n1 | 155 °C
CCSC(C)(C)C(=O)CC(=O)Nc1cc(NC(=O)C(CC)Oc2ccc(C(C)(C)CC)cc2C(C)(C)CC)ccc1Cl (configuration not stated) | 65 to 68 °C
CCOc1nc(N)n2nc(-c3ccco3)nc2n1 | 211 to 213 °C
CCc1cc2c(c(CC)n1)CCC(=O)N2 | 90 to 94 °C
CC(C)N1C(=O)C(=O)NC1=NC(=NC(=O)OC(C)(C)C)Nc1ccc(Cl)c(Cl)c1 | 226 °C
CCCCCCO[C@H](C)C(=O)Oc1ccc(C(=O)O)cc1 | 67 to 72 °C
CCOP(=O)(OCC)C(F)(F)c1ccc(CN(Cc2ccc(C(F)(F)P(=O)(OCC)OCC)cc2)C(=O)NCc2ccccc2)cc1 | 124 to 127 °C
Cc1ccc(-c2nc(-c3ccc(C)cc3C)nc(-c3cc(C(C)(C)c4ccccc4)c(O)cc3O)n2)c(C)c1 | 168 to 170 °C
O=P1(O)Oc2c(-c3ccccc3)cc(Cl)cc2-c2ccccc21 | 260 °C
CCOC(=O)c1cc(-n2c(=O)c3c(n(C)c2=O)CSC3)ccc1Cl | 203 to 206 °C
NC(=O)NCC#CCN1CCCC1 | 71 to 73 °C
CCCCc1nc2c([nH]c(=O)c3ccccc32)s1 | 172 to 173 °C
CC1=C2OCOC2CC(C)(C)C1(O)C[Si](C)(C)C (configuration not stated) | 63 to 64.5 °C
CC(C)(C)c1cc(NC(=O)NCc2ccc(N)cc2)cc(C(C)(C)C)c1O | 194 to 195 °C
CNC(=S)N(C)Cc1cccnc1 | 86 to 87 °C
COc1ccc(-c2cc(-c3ccccc3)c(-c3ccccc3)s2)cc1F | 118 to 122 °C
NNC(=O)c1cnc2c(=O)[nH]c3ccccc3n2c1=O | > 300 °C
COc1ccc(Cc2c(C)c3c(N)nc(N)nc3[nH]c2=O)cc1OC | 346 to 348 °C
CCOC(=O)CNC(=O)OCc1ccc(OC(C)=O)c(OC)c1 | 62 to 64 °C
Cc1ccc(Cc2ccc(-c3ccccc3)cc2)cc1 | 87 °C

Structure (SMILES) | melting point
COCOc1ccc(N2C(=O)[C@@H](N=[N+]=[N-])[C@H]2C=Cc2ccccc2)cc1 (relative stereo) | 111 to 112 °C
CC1(C)NC(=O)OC12CCNCC2 | 38 to 40 °C
CCN(C(=O)c1cnc(N2CC(C)(C)NC2=O)nc1N)c1cccc(C(F)(F)F)c1 | 186 to 187 °C
O=C1CSC(=S)N1c1ccc(Cl)cc1 | 124 to 126 °C
C#CCOc1cccc(CCCCCCCCCCCCCCC)c1 | 26 to 27 °C
COc1ccc(-c2csc(Nc3ccccn3)n2)cc1OC | 211 to 214 °C
Cc1ccc(Cc2cnc(Cl)nc2OC(C)C)cn1 | 38 to 42 °C
N#CC1CCn2cccc21 (configuration not stated) | 44 to 45 °C
CC(C)Oc1nc(N)nc2c1ncn2C1C=CC(CO)C1 (configuration not stated) | 188 to 191 °C
CC(C)(CO)NS(=O)(=O)c1ccc(Cl)s1 | 112 °C
CSC(C(N)=O)c1cc(Cl)cc(C(=O)c2ccccc2)c1N (configuration not stated) | 174 °C
CCOC(=O)Cn1ccc2ccc3c(c21)CCN(C(=O)OC(C)(C)C)CC3 | 111 to 115 °C
CCOC(=O)C(CC)C(O)(c1ccccc1)c1ccc(O)cc1 (configuration not stated) | 46 to 53 °C
N#CC(C=O)=Cc1ccsc1 | 123 to 124 °C
CCC(C(=O)O)c1ccc(N[C@@H](CCC(N)=O)C(=O)O)cc1 (some centres not stated) | 166 to 167 °C
CC(C)(C)OC(=O)N[C@H]1C(=O)N[C@H]1CON1C(=O)c2ccccc2C1=O (relative stereo) | 218 to 219 °C
CCOc1nc(N)c2ncn(C3C=CCCC3)c2n1 (configuration not stated) | 67 to 72 °C
CCCOc1ccccc1-c1nc2nc(N(CC)CC)ncc2c(=O)[nH]1 | 116 to 117 °C
COc1ccc(-c2nnc3cc(-c4ccccc4)c(OCc4ncn(C)n4)nn23)cc1 | 205 to 206 °C
Oc1c2c(c(O)c3ccccc13)CCCC2 | 210 to 212 °C
CC(C)c1c(C(=O)O)cnn1-c1ccc(Cl)cc1 | 211 to 212 °C
NC(CSc1nc(NCc2ccc3c(c2)OCO3)cc(-c2ccccc2)n1)=NO | 160 to 163 °C
CN1C(=O)Cc2cc(C(=O)[C@H]3C[C@H]3C(=O)O)ccc21 (relative stereo) | 237 to 240 °C

The remaining lines, values ahead:

melting point | Structure (SMILES)
197 to 198 °C | CC1=NC(NC(=O)Nc2cccc(C)c2)C(=O)N(CC(=O)N2CCC(C(N)=O)CC2)c2c(C)cccc21 (configuration not stated)
221 to 223 °C | O=C(c1ccc(C(=O)c2ccc(F)c([N+](=O)[O-])c2)cc1)c1ccc(F)c([N+](=O)[O-])c1
100 to 101 °C | CCCCCCCNC(=O)N(C)c1cccc(-c2ccc(CCC(=O)NO)cc2)c1
178 to 182 °C | CC(C)c1ccc2c(c1)C(=O)c1ccc(C(=O)O)cc1CC2
170 to 172 °C | CC(C)c1cccc(C(C)C)c1NC(=O)C1c2ccccc2COc2cc(Br)ccc21 (configuration not stated)
105 to 109 °C | CC1(CC(=O)N2CCC([C@H]3c4ncc(Br)cc4CCc4cc(Cl)cc(Br)c43)CC2)C=CN(S(C)(=O)=O)C=C1
134 to 135 °C | Fc1ccc2c(c1)OCc1c(-c3nc(C4CCCC4)no3)ncn1-2
153 to 155 °C | Cc1nc(N2CCC(CC3CC3)C2=O)sc1C(=O)NCc1ccc(F)cc1 (configuration not stated)
285 to 287 °C | Cc1ccccc1C=C1CCn2c1nc1ccc(C(=O)O)cc1c2=O
135 to 137 °C | Cc1ccc(Cc2cnc(NCCCCc3cc(CN(C)C)ccn3)[nH]c2=O)cn1
242 to 244 °C | Cc1oc2ccccc2c1C(=O)NCc1ccc2c(Br)c(OCc3nnn[nH]3)ccc2c1
137 to 139 °C | Cc1cccc(N2CCOC2=O)c1CNc1cccn2c(Cl)c(C)nc12
107 to 109 °C | O=C(Nc1ccc(F)cc1F)c1nccnc1Oc1cccc(C(F)(F)F)c1
117 to 119 °C | COCC1(O)CCN(c2c(F)cc(N3C[C@H](CO)OC3=O)cc2F)CC1
166 to 168 °C | CCOC(=O)C(C)OCC#Cc1cc(Cl)ccc1NS(=O)(=O)c1ccc2ncsc2c1 (configuration not stated)
53 to 55 °C | CCCCOC(=O)CCCOc1ccc(F)c(C(N)=O)c1F
151 to 152 °C | O=C(NO)c1ccc(CNC(=O)c2[nH]c(-c3cccs3)cc2-c2ccc(F)cc2)nc1
154 °C | CCN(CC)CCC1CCN(C(=O)N2c3ccccc3C(=O)Nc3cccnc32)CC1
166 to 168 °C | Cc1ccccc1NC(=O)CN1CC2CCC(C1)N2S(=O)(=O)c1cccc(C#N)c1
183 to 184 °C | O=C(Nc1cc(Cl)ccc1O)Nc1ccccc1C(F)(F)F
90 to 94 °C | CSc1c(C(Cc2ccc(F)cc2)C(=O)O)ccc2c3ccccc3n(Cc3ccc(F)cc3)c12 (configuration not stated)
115 °C | COC(=O)c1ccc(F)c2c1CC(N(CCCCc1c[nH]c3ccc(F)cc13)C1CCC1)CO2 (configuration not stated)
90 °C | COC(=O)CCc1ccc(C(=O)CCl)cc1
70 to 72 °C | COc1ccc(C(=O)c2cc(OC)ccc2O)cc1
69 to 73 °C | COc1cccc(C(=C/C=C/C(=O)NCCCCc2cccnc2)c2cccc(OC)c2)c1
